The record followed here is US9464120B2, “Compositions for treatment of celiac disease” (ImmusanT, Inc., priority 2008, dated 2016).

The subject of data set [1] is CD4+ T cells specific for NPL001. Put plainly: Proliferation of transferred CFSE labelled NPL001-specific CD4+ T cells after subcutaneous administration (adoptive transfer model). The note with it: previous mouse studies. Type of data set: in vivo. The text has this: The interaction between NPL001 (SEQ ID NO:228) and cognate T cells in vivo has been modelled by developing transgenic Black-6 mice expressing functional HLA-DR3 and -DQ2 (but not murine MHC Class II molecules) on antigen presenting cells (APC) who are transferred 3×10^6 CFSE labelled CD4^+ T cells specific for NPL001 (Chen Z., et al., 2006). The donor mouse (HH8-1) is transgenic for the NPL001-specific T cell receptor and human CD4 expressed on T cells, and also expresses HLA-DR3 DQ2 on APC. Overall 96% of the CD4^+ T cells in the HH8-1 mouse are clonal and specific for NPL001 (results not shown).
Four days after subcutaneous administration (in the hind foot hock) of an equimolar mixture of NPL001, NPL002 and NPL003 in 50 μl saline, spleen, gut-draining mesenteric lymph nodes (MLN) and the local draining popliteal lymph nodes (PLN) are harvested. Isolated mononuclear cells are stained for hCD4, and the T-cell receptor α- and β-chains expressed on the HH8-1 NPL001-specific T cells (Vα8 and Vβ8). Proliferation of transferred CFSE labelled cells is measured as the % CFSE^pos cells having undergone one or more division, as indicated by dilution of CFSE staining.

Data set [2] is described as follows: Pharmacokinetics after bolus intradermal injection in an adult rat. Type of data set: in vivo. As for the experimental part:
To improve their chemical stability and increase resistance to exopeptidases, peptides were synthesised as acetate salts of “capped” N-pyroglutamate, C-amide: NPL001 (SEQ ID NO:228), NPL002 (SEQ ID NO:229) and NPL003 (SEQ ID NO:230) 15mers or 16mers with glutamate at sites predicted to be deamidated by tTG. Indeed, capping extended the half-lives of peptides from 10-12 minutes for free peptides: NPL033, NPL038, and NPL034 (SEQ ID NOs:13, 320 and 321) after bolus intradermal injection of 0.9 mg in 0.1 ml in an adult rat to 26-28 minutes with N-pyroglutamate and C-amidation (SEQ ID NOs:228, 229 and 230) or 19-24 minutes with N-acetylation and C-amidation (SEQ ID NOs:231, 232, and 233), (see Table 4).

Each structure is given as a SMILES string. Square brackets hold non-standard residues; d marks the D form. Peptide text beside a SMILES is read from it. pGlu = O=C1CC[C@@H](C(=O)O)N1

Take `CC(C)C[C@H](NC(=O)[C@@H]1CCC(=O)N1)C(=O)N[C@@H](CCC(N)=O)C(=O)N1CCC[C@H]1C(=O)N[C@@H](Cc1ccccc1)C(=O)N1CCC[C@H]1C(=O)N[C@@H](CCC(N)=O)C(=O)N1CCC[C@H]1C(=O)N[C@@H](CCC(=O)O)C(=O)N[C@@H](CC(C)C)C(=O)N1CCC[C@H]1C(=O)N[C@@H](Cc1ccc(O)cc1)C(=O)N1CCC[C@H]1C(=O)N[C@@H](CCC(N)=O)C(=O)N1CCC[C@H]1C(=O)N[C@@H](CCC(N)=O)C(N)=O` [NPL001, pyroELQPFPQPELPYPQPQ-amide] ([pGlu]LQPFPQPELPYPQPQ-NH2): the “bioactivity in vivo of a single dose” value in data set [1] was “bioactive in vivo”. Moreover, the T1/2 half life result in data set [2] (adult rat, intradermal bolus injection 0.9 mg in 0.1 ml saline of equimolar mixture) is given as “T1/2 28.20 minutes”. Besides, the “AUC area under the curve (bioavailability)” value in data set [2] (rat, in vivo, 0.9 mg) is “AUC 89350”. Further, the half-life in data set [2] (rat, in vivo, intradermal bolus injection, 0.9 mg, adult rat, intradermal bolus injection 0.9 mg in 0.1 ml saline of equimolar mixture, read-out: T1/2 half life) lay in the range of 26 to 28 min.
